{"source": "patent US20230414697A1", "about": "“ENHANCED GINGEROLS FOR PATIENTS SUFFERING FROM NAUSEA AND EMESIS” (Aphios Corporation, priority 2020, published 2023)", "origin": "cited, not measured here", "key": {"[1]": {"conditions": "2.0 gm oral ginger, 1.25 mg intravenous droperidol, placebo; 24 hour period following surgery"}, "[2]": {"conditions": "post-operative; reported by Bone and colleagues"}, "[3]": {"conditions": "ginger 0.5 gm or 1 gm, metochlopramide 10 mg"}}, "data": [{"molecule": "O=C(CCCN1CC=C(n2c(=O)[nH]c3ccccc32)CC1)c1ccc(F)cc1", "note": "[droperidol]", "values": [{"measurement": "differences in frequency or severity of post-operative nausea or frequency of post-operative vomiting", "setting": "[1]", "value": "no differences"}]}, {"molecule": "CCN(CC)CCNC(=O)c1cc(Cl)c(N)cc1OC", "note": "[metochlopramide]", "values": [{"measurement": "vomiting vs placebo", "setting": "[2]", "value": "less vomiting"}, {"measurement": "frequency of emesis, differences between the three arms", "setting": "ginger, metochlopramide, placebo, post-operative", "value": "no significant differences"}, {"measurement": "patients nauseated", "setting": "post operative, placebo 41%", "value": "placebo, 27%"}, {"measurement": "post-operative nausea vs placebo", "setting": "[3]; both studies", "value": "significantly more effective than placebo"}, {"measurement": "effectiveness for post-operative nausea, ginger compared with metochlopramide", "setting": "[3]; women undergoing gynecologic surgery, two studies", "value": "equal effectiveness"}]}]}
